According to ChEMBL document CHEMBL4219241, “Design, synthesis, and structure-activity relationships of novel imidazo[4,5-c]pyridine derivatives as potent non-nucleoside inhibitors of hepatitis C virus NS5B” (Bioorg Med Chem, 2018):

Columns and labels:
[1] = target: T1, RNA-directed RNA polymerase (Hepacivirus hominis, UniProt O39930); assay: Inhibition of Hepatitis C virus genotype 1b NS5B RNA-dependent-RNA polymerase assessed as reduction in viral replication after 72 hrs by indirect immunofluorescence assay; parameters: species or system Hepatitis C virus subtype 1b
T1 sequence (O39930 whole entry): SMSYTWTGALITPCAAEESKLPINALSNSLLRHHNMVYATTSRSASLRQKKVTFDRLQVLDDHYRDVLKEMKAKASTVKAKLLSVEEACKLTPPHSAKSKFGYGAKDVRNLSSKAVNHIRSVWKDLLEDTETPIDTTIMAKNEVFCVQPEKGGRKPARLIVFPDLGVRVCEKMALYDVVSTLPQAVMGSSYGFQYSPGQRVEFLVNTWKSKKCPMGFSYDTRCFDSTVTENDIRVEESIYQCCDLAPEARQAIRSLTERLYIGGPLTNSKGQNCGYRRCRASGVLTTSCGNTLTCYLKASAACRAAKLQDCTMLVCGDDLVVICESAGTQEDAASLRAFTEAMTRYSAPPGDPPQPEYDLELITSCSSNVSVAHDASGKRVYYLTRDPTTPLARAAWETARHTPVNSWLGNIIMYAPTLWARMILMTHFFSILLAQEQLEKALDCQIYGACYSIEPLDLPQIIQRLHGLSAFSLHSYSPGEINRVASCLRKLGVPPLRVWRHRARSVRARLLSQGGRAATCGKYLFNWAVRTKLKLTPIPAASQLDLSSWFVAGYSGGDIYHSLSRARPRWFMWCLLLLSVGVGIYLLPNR

[2] = target: T1, RNA-directed RNA polymerase; assay: Inhibition of Hepatitis C virus genotype 1b NS5B RNA-dependent-RNA polymerase; parameters: species or system Hepatitis C virus subtype 1b
[3] = target: RNA-directed RNA polymerase (Hepacivirus hominis) (UniProt O39930); assay: Potency index, ratio of sofosbuvir EC50 to test compound EC50 for inhibition of Hepatitis C virus genotype 1b NS5B RNA-dependent-RNA polymerase assessed as reduction in viral replication; conditions: Hepatitis C virus subtype 1b
Chain of RNA-directed RNA polymerase (Hepacivirus hominis) (O39930 1-591): as the sequence (O39930 whole entry) above

[4] = Cmax in Sprague-Dawley rat at 35 mg/kg, po administered via gavage by UPLC-MS analysis; format: ADME, organism-based; parameters: dose 35 mg/kg, route oral; conditions: in vivo
[5] = Apparent volume of distribution during terminal phase in Sprague-Dawley rat at 35 mg/kg, po administered via gavage by UPLC-MS analysis; format: ADME, organism-based; conditions: in vivo, read-out: Vz/F
[6] = Terminal half life in Sprague-Dawley rat at 35 mg/kg, po administered via gavage by UPLC-MS analysis; format: ADME, organism-based; conditions: in vivo, read-out: beta t1/2 (converted)
[7] = MRT (0 to infinity) in Sprague-Dawley rat at 35 mg/kg, po administered via gavage by UPLC-MS analysis; format: ADME, organism-based; conditions: in vivo
[8] = Apparent clearance during terminal phase in Sprague-Dawley rat at 35 mg/kg, po administered via gavage by UPLC-MS analysis; format: ADME, organism-based; conditions: in vivo, read-out: CLz/F (converted)
[9] = AUC (0 to infinity) in Sprague-Dawley rat at 35 mg/kg, po administered via gavage by UPLC-MS analysis; format: ADME, organism-based; parameters: dose 35 mg/kg, route oral, time infinity; conditions: in vivo
[10] = Tmax in Sprague-Dawley rat at 35 mg/kg, po administered via gavage by UPLC-MS analysis; format: ADME, organism-based; conditions: in vivo

Structure (SMILES) | EC50 [1] | other results
Cc1cc(C)n2nc(Cn3ccc4nc(-c5ccccc5F)nc-4c3)nc2n1 | Not Active | 
Fc1ccccc1-c1nc2ccn(Cc3ccc(-c4ccc(C(F)(F)F)cc4C(F)(F)F)nn3)cc-2n1 [TEGOBUVIR] |  | EC50 [2]: 2.9 nM
Fc1ccccc1-c1nc2ccn(Cc3cn(-c4ccccc4)nn3)cc-2n1 |  | Ratio EC50 [3]: 3
COc1ccc(-n2cc(Cn3ccc4nc(-c5ccccc5F)nc-4c3)nn2)cc1 |  | Cmax [4]: 22300 ng/mL; Vd/F [5]: 2.12 L/kg; half-life [6]: 2.88 h; MRT inf [7]: 2.18 h; CL/F [8]: 8.33 mL/min/kg; AUC(0-inf) [9]: 72500 ng·h/mL; Tmax [10]: 1.33 h
Cc1cc(C)n2cc(Cn3ccc4nc(-c5ccccc5F)nc-4c3)nc2n1 | Not Active | 
Fc1ccccc1-c1nc2ccn(Cc3nc4ccccc4n3-c3cccc(C(F)(F)F)c3)cc-2n1 | Not Active | 
Fc1ccccc1-c1nc2ccn(Cc3cn(Cc4nc5ccccc5n4-c4cccc(C(F)(F)F)c4)nn3)cc-2n1 | Not Active | 
Cc1ccc(-n2c(Cn3ccc4nc(-c5ccccc5F)nc-4c3)nc3ccccc32)cc1 | Not Active | 

More lines, main results first:

EC50 [1] | Structure (SMILES) | other results
Not Active | Fc1ccccc1-c1nc2ccn(Cc3cn(Cc4nc5ccccc5n4-c4ccccc4)nn3)cc-2n1 | 
Not Active | Fc1ccccc1-c1nc2ccn(Cc3nc4ccccc4n3-c3cccc(Cl)c3)cc-2n1 | 
Not Active | Fc1ccccc1-c1nc2ccn(Cc3cn4cccnc4n3)cc-2n1 | 
Not Active | Fc1ccccc1-c1nc2ccn(Cc3nc4ccccc4n3-c3ccccc3)cc-2n1 | 
Not Active | Fc1ccccc1-c1nc2ccn(Cc3cn(-c4cc(C(F)(F)F)cc(C(F)(F)F)c4)nn3)cc-2n1 | 
